{"source": "patent US20170196842A1", "about": "“METHODS OF TREATMENT USING A 1,2,4-OXADIAZOLE BENZOIC ACID” (PTC Therapeutics, Inc., priority 2014, published 2017)", "key": {"[1]": {"assay": "Pharmacokinetics of Compound 1 delivered via solid chow (plasma, LC-MS/MS)", "format": "in vivo, C57BL/6J mice", "details": "for Tmax / Tmin / Cmin / AUC / Cmax: C57BL/6J mice; for AUC / Cmax: C57BL/6J, mouse, plasma, po; for AUC: read-out: AUC9-10", "description": "The pharmacokinetics of Compound 1 at three doses (0.1%, 0.3% or 1% (w/w)) when delivered via solid chow was determined in satellite wild type C57BL/6J mice. The first day Compound 1 was provided was defined as Day 0. On Day 3 and on Day 13 blood was obtained from mice at specified time points and the plasma concentration of Compound 1 was measured using liquid chromatography-tandem mass spectrometry.\nAUC9-10 refers to area under the curve plotting plasma concentration over time (9 am to 10 pm) (hr·μg/mL); Cmax refers to maximal plasma concentration (μg/mL); Cmin refers to minimal plasma concentration (μg/mL); Tmax refers to the time at which the maximal plasma concentration was measured; and Tmin refers to the time at which the minimal plasma concentration was measured."}, "[2]": {"assay": "Weight gain and food intake of mice given Compound 1 in chow", "format": "in vivo, C57BL/6J mice", "details": "1.0% (w/w) in chow", "from_the_text": "Mice receiving food containing 1.0% (w/w) Compound 1 are 45% less food than mice receiving the control chow. However, a reduction in weight gain would not be expected to elicit a reduction in tissue GAG levels in the pharmacology studies."}, "[3]": {"details": "0.1% (w/w) in chow, Day 3, clock time"}, "[4]": {"details": "0.1% (w/w) in chow, Day 13, clock time"}, "[5]": {"details": "0.3% (w/w) in chow, Day 3, clock time"}, "[6]": {"details": "0.3% (w/w) in chow, Day 13, clock time"}, "[7]": {"details": "1.0% (w/w) in chow, Day 3, clock time"}, "[8]": {"details": "1.0% (w/w) in chow, Day 13, clock time"}}, "note": "Read-outs that look alike come from different tables or passages of the source."}
{"smiles": "O=C(O)c1cccc(-c2noc(-c3ccccc3F)n2)c1", "note": "[Compound 1, 3-[5-(2-fluoro-phenyl)-[1,2,4]oxadiazol-3-yl]-benzoic acid]", "values": [{"measurement": "Tmax", "setting": "[1]; [3]", "result": 10, "unit": "pm"}, {"measurement": "Tmin", "setting": "[1]; [3]", "result": 1, "unit": "pm"}, {"measurement": "Cmin", "setting": "[1]; 0.1% (w/w) in chow, Day 3, plasma", "result": 760, "unit": "ng/mL"}, {"measurement": "Tmax", "setting": "[1]; [4]", "result": 10, "unit": "pm"}, {"measurement": "Tmin", "setting": "[1]; [4]", "result": 1, "unit": "pm"}, {"measurement": "Cmin", "setting": "[1]; 0.1% (w/w) in chow, Day 13, plasma", "result": 1000, "unit": "ng/mL"}, {"measurement": "Tmax", "setting": "[1]; [5]", "result": 10, "unit": "pm"}, {"measurement": "Tmin", "setting": "[1]; [5]", "result": 1, "unit": "pm"}, {"measurement": "Cmin", "setting": "[1]; 0.3% (w/w) in chow, Day 3, plasma", "result": 3700, "unit": "ng/mL"}, {"measurement": "Tmax", "setting": "[1]; [6]", "result": 10, "unit": "pm"}, {"measurement": "Tmin", "setting": "[1]; [6]", "result": 9, "unit": "am"}, {"measurement": "Cmin", "setting": "[1]; 0.3% (w/w) in chow, Day 13, plasma", "result": 4600, "unit": "ng/mL"}, {"measurement": "Tmax", "setting": "[1]; [7]", "result": 4, "unit": "pm"}, {"measurement": "Tmin", "setting": "[1]; [7]", "result": 1, "unit": "pm"}, {"measurement": "Cmin", "setting": "[1]; 1.0% (w/w) in chow, Day 3, plasma", "result": 21000, "unit": "ng/mL"}, {"measurement": "Tmax", "setting": "[1]; [8]", "result": 4, "unit": "pm"}, {"measurement": "Tmin", "setting": "[1]; [8]", "result": 9, "unit": "am"}, {"measurement": "Cmin", "setting": "[1]; 1.0% (w/w) in chow, Day 13, plasma", "result": 19000, "unit": "ng/mL"}, {"measurement": "AUC", "setting": "[1]; 0.1 % (w/w) in chow, 0.1% (w/w) in chow, Day 3, 9 am to 10 pm", "result": 35000, "unit": "ng·h/mL"}, {"measurement": "Cmax", "setting": "[1]; 0.1 % (w/w) in chow, 0.1% (w/w) in chow, Day 3, plasma", "result": 5200, "unit": "ng/mL"}, {"measurement": "AUC", "setting": "[1]; 0.1 % (w/w) in chow, 0.1% (w/w) in chow, Day 13, 9 am to 10 pm", "result": 28000, "unit": "ng·h/mL"}, {"measurement": "Cmax", "setting": "[1]; 0.1 % (w/w) in chow, 0.1% (w/w) in chow, Day 13, plasma", "result": 3600, "unit": "ng/mL"}, {"measurement": "AUC", "setting": "[1]; 0.3 % (w/w) in chow, 0.3% (w/w) in chow, Day 3, 9 am to 10 pm", "result": 109000, "unit": "ng·h/mL"}, {"measurement": "Cmax", "setting": "[1]; 0.3 % (w/w) in chow, 0.3% (w/w) in chow, Day 3, plasma", "result": 19000, "unit": "ng/mL"}, {"measurement": "AUC", "setting": "[1]; 0.3 % (w/w) in chow, 0.3% (w/w) in chow, Day 13, 9 am to 10 pm", "result": 89000, "unit": "ng·h/mL"}, {"measurement": "Cmax", "setting": "[1]; 0.3 % (w/w) in chow, 0.3% (w/w) in chow, Day 13, plasma", "result": 13000, "unit": "ng/mL"}, {"measurement": "AUC", "setting": "[1]; 1 % (w/w) in chow, 1.0% (w/w) in chow, Day 3, 9 am to 10 pm", "result": 420000, "unit": "ng·h/mL"}, {"measurement": "Cmax", "setting": "[1]; 1 % (w/w) in chow, 1.0% (w/w) in chow, Day 3, plasma", "result": 41000, "unit": "ng/mL"}, {"measurement": "AUC", "setting": "[1]; 1 % (w/w) in chow, 1.0% (w/w) in chow, Day 13, 9 am to 10 pm", "result": 594000, "unit": "ng·h/mL"}, {"measurement": "Cmax", "setting": "[1]; 1 % (w/w) in chow, 1.0% (w/w) in chow, Day 13, plasma", "result": 58000, "unit": "ng/mL"}, {"measurement": "Plasma concentrations (range over time points)", "setting": "[1]; mice, 1.0% (w/w) in chow", "result": "19000 to 58000", "unit": "ng/mL"}, {"measurement": "Reduction of food intake versus control chow", "setting": "[2]", "result": 45, "unit": "%"}, {"measurement": "Weight gain versus 0.1%, 0.3% doses or vehicle", "setting": "[2]; satellite PK study and Idua-W402X pharmacology studies", "result": "did not gain as much weight"}]}
